{"source": "ChEMBL document CHEMBL1201862", "about": "“PubChem BioAssay data set” (2004)", "key": {"[1]": {"molecular_target": "T1, High affinity choline transporter 1 (Homo sapiens, UniProt Q9GZV3)", "T1 sequence (Q9GZV3 whole entry)": "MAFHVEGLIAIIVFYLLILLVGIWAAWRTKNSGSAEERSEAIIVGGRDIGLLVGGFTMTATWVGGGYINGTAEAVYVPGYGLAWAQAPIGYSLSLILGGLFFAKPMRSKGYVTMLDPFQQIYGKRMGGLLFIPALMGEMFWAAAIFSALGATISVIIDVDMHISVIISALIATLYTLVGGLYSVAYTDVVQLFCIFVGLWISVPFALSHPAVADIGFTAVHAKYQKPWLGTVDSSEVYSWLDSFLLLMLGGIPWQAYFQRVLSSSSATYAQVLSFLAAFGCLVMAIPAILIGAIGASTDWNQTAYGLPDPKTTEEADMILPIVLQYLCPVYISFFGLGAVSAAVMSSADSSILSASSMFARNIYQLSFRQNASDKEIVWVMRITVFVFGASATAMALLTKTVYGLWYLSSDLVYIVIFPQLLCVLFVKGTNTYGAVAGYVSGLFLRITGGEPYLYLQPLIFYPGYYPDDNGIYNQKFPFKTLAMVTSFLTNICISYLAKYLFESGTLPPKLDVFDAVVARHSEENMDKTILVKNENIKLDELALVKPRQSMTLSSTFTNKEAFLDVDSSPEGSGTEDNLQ", "assay": "human choline transporter blockers, potency – cell-based, 5-point CRC, membrane potential dye, dose response (AID 504840)", "type": "functional"}, "[2]": {"molecular_target": "Glucose-6-phosphate 1-dehydrogenase (Homo sapiens, UniProt P11413)", "sequence (P11413 whole entry)": "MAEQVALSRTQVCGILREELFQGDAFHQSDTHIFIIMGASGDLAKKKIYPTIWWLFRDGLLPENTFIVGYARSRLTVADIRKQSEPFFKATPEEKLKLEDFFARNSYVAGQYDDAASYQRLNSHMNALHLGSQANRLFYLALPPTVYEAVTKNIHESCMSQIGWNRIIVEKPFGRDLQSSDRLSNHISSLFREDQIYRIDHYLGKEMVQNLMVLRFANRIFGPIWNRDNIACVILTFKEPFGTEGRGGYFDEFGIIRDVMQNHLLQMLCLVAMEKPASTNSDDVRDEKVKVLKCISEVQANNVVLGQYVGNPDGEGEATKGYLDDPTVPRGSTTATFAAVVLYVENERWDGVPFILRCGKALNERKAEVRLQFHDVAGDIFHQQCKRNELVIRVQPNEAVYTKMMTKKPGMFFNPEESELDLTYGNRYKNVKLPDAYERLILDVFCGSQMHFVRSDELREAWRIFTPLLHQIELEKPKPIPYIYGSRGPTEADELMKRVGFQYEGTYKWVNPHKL", "assay": "inhibition of Homo sapiens G6PD, dose series – biochemical, fluorescence, selectivity assay for P. falciparum G6PD inhibitor project, dose response (AID 504792)", "type": "functional"}, "[3]": {"molecular_target": "Induced myeloid leukemia cell differentiation protein Mcl-1 (Homo sapiens, UniProt Q07820)", "sequence (Q07820 whole entry)": "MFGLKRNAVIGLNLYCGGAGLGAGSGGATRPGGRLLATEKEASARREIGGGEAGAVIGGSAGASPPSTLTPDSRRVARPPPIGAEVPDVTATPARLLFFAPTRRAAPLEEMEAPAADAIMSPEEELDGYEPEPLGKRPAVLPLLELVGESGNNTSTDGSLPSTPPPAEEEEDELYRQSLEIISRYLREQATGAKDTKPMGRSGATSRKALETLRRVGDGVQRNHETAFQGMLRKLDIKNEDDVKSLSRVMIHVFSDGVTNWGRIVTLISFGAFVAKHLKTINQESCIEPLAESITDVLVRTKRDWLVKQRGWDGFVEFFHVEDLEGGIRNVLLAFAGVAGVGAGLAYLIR", "type": "functional"}, "Nonstructural protein 1": {"molecular_target": "Nonstructural protein 1 (Influenza A virus, UniProt Q194T2)", "sequence (Q194T2 whole entry)": "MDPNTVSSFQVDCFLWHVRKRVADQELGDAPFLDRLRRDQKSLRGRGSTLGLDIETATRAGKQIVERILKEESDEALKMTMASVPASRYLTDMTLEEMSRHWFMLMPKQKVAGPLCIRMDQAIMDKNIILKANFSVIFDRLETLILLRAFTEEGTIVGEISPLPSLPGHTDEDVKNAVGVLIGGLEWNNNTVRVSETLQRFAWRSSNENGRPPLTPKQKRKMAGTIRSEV", "type": "functional, Influenza A virus (A/California/07/2009(H1N1))"}, "[4]": {"assay": "luciferase reporter signal suppression in cells – H4 neuroglioma cells, luminescence, dose response (AID 1990)", "type": "functional, cell-based"}, "BJ [5]": {"tested_on": "BJ", "assay": "BJ-TERT fibroblast viability loss – cell-based, RAS-independent, luminescence, dose response (AID 1933)", "type": "functional", "conditions": "Homo sapiens"}, "[6]": {"assay": "Luminescence Cell-Based Dose Response HTS to Identify Inhibitors of 5'UTR Stem-Loop Driven Prion Protein mRNA Translation in H4 Neuroglioblastoma Cells. [Related pubchem assays: 1827 (Project Summary), 1813 (Primary HTS)]", "type": "functional"}, "BJ [7]": {"tested_on": "BJ", "assay": "cells", "type": "functional, cell-based", "conditions": "Homo sapiens"}, "BJ [8]": {"tested_on": "BJ", "assay": "BJ-TERT-LT-ST fibroblast viability loss – cell-based, RAS-independent, luminescence, dose response (AID 1935);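 also: BJ fibroblasts immortalized with TERT plus LT and ST oncogenes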", "type": "functional", "conditions": "Homo sapiens"}, "[9]": {"assay": "DRD fibroblast viability loss – cell-based, non-viral oncogenic, luminescence, dose response (AID 1934)", "type": "functional", "conditions": "Homo sapiens"}, "[10]": {"assay": "HEK-293T viability loss after treatment – luminescence, T-cell screen hits, cytotoxicity control for TCR NF-kB inhibitor project, dose response (AID 489026);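 also: cells exposed to compound about 14 hours before the viability readout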", "type": "functional, cell-based"}, "Vero": {"tested_on": "Vero", "assay": "cells", "type": "functional", "conditions": "Chlorocebus sabaeus"}, "[11]": {"molecular_target": "T2, Rac GTPase-activating protein 1 (Homo sapiens, UniProt Q9H0H5)", "T2 sequence (Q9H0H5 whole entry)": "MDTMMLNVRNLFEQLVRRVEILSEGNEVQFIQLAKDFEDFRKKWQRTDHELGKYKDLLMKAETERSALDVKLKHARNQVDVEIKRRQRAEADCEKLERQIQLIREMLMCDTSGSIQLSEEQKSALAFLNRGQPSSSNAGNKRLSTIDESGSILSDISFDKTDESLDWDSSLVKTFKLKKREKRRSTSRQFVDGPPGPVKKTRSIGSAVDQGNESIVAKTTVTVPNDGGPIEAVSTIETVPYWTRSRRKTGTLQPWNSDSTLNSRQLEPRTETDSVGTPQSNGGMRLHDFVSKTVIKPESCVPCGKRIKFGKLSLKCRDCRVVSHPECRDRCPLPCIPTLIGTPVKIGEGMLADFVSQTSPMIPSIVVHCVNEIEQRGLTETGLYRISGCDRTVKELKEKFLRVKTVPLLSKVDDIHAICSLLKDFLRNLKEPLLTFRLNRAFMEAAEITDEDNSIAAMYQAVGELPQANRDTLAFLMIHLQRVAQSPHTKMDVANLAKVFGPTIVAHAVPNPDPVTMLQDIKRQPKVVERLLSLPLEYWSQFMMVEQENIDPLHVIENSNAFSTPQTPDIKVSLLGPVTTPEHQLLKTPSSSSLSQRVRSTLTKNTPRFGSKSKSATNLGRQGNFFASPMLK", "assay": "blockers of MgcRacGAP-driven Rac1 GTP hydrolysis – biochemical, ADP Hunter fluorescence, primary and confirmatory, confirmation (AID 624330)", "type": "functional"}, "[12]": {"molecular_target": "T3, Heat shock factor protein 1 (Mus musculus, UniProt P38532)", "T3 sequence (P38532 whole entry)": "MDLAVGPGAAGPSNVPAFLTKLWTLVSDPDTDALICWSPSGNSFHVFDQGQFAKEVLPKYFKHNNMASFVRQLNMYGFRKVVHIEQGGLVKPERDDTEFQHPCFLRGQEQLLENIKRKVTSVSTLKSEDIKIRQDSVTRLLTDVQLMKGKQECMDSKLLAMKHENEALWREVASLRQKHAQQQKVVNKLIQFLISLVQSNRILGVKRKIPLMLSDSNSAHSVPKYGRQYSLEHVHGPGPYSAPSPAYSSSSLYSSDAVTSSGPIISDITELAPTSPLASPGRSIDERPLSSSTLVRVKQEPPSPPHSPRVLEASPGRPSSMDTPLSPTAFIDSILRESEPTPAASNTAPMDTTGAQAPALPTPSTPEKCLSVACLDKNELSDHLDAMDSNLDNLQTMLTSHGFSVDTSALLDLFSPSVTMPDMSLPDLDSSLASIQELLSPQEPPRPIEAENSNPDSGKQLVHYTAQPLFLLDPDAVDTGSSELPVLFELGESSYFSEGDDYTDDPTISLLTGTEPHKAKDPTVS", "assay": "decrease of HSF1-responsive luciferase luminescence – cell-based, NIH3T3, dose retest, confirmation (AID 2382);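 also: NIH3T3 fibroblasts with HSF1-driven luciferase reporter stressed by proteasome inhibitor MG132; luminescence from HSF1-driven luciferase expression after 8 hours of MG132 stress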", "type": "functional"}, "[13]": {"molecular_target": "T4, Microphthalmia-associated transcription factor (Homo sapiens, UniProt O75030)", "T4 sequence (O75030 whole entry)": "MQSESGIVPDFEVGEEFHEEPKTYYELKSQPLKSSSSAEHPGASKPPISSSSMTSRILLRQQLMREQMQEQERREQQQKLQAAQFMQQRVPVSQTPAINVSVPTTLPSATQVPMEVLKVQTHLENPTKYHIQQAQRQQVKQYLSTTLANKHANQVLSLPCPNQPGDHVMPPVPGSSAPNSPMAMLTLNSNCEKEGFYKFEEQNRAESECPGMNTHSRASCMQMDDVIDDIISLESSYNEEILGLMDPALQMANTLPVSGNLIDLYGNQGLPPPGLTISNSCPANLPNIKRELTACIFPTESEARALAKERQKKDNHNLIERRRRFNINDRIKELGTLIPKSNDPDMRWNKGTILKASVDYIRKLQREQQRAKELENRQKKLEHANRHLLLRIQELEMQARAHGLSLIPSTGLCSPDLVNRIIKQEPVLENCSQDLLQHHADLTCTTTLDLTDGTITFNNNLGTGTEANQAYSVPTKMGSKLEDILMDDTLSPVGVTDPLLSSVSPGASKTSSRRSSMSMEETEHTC", "assay": "reducers of TRPM1 reporter luminescence, concentration series – cell-based, SK-MEL-5, cherry-picked, set 3, MITF inhibitor project, dose response (AID 493073)", "type": "functional"}}, "note": "Activity calls are given as the source filed them.", "data": [{"compound": "CCn1c(SCc2nc(-c3ccc(Cl)cc3)no2)nnc1-c1ccco1", "values": [{"measurement": "IC50", "setting": "[1]", "result": "15.2 µM (active)"}]}, {"compound": "COCc1cc(O)n2nc(C(C)(C)C)cc2n1", "values": [{"measurement": "IC50", "setting": "[2]", "result": "> 80 µM (inactive)"}]}, {"compound": "Cc1ccc(N2C(=O)/C(=C\\NNc3ccc(S(=O)(=O)N4CCOCC4)cc3[N+](=O)[O-])c3ccccc3C2=O)c(C)c1", "values": [{"measurement": "IC50", "setting": "[3]", "result": "1.8 µM (not active)"}, {"measurement": "IC50", "setting": "Nonstructural protein 1", "result": "8.94 µM (active)"}, {"measurement": "IC50", "setting": "[1]", "result": "12.3 µM (active)"}]}, {"compound": "O=C(CNC(=O)c1ccco1)N=Nc1c(O)n(CCc2ccccc2)c2ccccc12", "values": [{"measurement": "EC50", "setting": "[4]", "result": "12.2 µM (active)"}, {"measurement": "EC50", "setting": "BJ [5]", "result": "3.21 µM (active)"}, {"measurement": "EC50", "setting": "[6]", "result": "> 120 µM (not active)"}, {"measurement": "EC50", "setting": "BJ [7]", "result": "17.7 µM (active)"}, {"measurement": "EC50", "setting": "BJ [8]", "result": "1.45 µM (active)"}, {"measurement": "EC50", "setting": "[9]", "result": "2.05 µM (active)"}, {"measurement": "IC50", "setting": "[10]", "result": "> 80 µM (inactive)"}, {"measurement": "CC50", "setting": "Vero", "result": "2.46 µM (active)"}]}, {"compound": "COc1cc(N)c2ncccc2c1OC", "values": [{"measurement": "IC50", "setting": "[2]", "result": "> 80 µM (inactive)"}, {"measurement": "IC50", "setting": "[11]", "result": "56.3 µM (active)"}]}, {"compound": "CC(C)c1ccc(/C=N/Nc2ccc(C(=O)O)cc2)cc1", "values": [{"measurement": "EC50", "setting": "[12]", "result": "< 0.16 µM (active)"}, {"measurement": "IC50", "setting": "[10]", "result": "> 80 µM (inactive)"}, {"measurement": "AC50", "setting": "[13]", "result": "3.53 µM (active)"}]}, {"compound": "COc1cc(C(=O)N/N=C/c2cccc(Oc3ccccc3)c2)ccc1O", "values": [{"measurement": "CC50", "setting": "Vero", "result": "> 25 µM (active)"}]}, {"compound": "CC/C(=C(/CC)c1ccc(O)cc1)c1ccc(O)cc1", "note": "[DIETHYLSTILBESTROL]", "values": [{"measurement": "IC50", "setting": "[1]", "result": "12.6 µM (active)"}]}]}
